Common to all, as to experiment: DTP human tumour cell line panel, 48 h
The subject of assay [1] is HOP-92.
Assay [2] concerns IGROV-1.
The subject of assay [3] is HCC 2998.
The subject of assay [4] is UACC-257.
In assay [5] the test system is UO-31.
For assay [6], the system named is U-251.
Assay [7] relates to PC-3.
Assay [8] concerns OVCAR-4.
Assay [9] has as its system T47D.
The test system of assay [10] is TK-10.
The test system of assay [11] is MCF7.
For assay [12], the system named is EKVX.
For assay [13], the system named is RXF 393.
Assay [14] relates to A549.
In assay [15] the test system is ACHN.
In assay [16] the test system is CCRF-CEM.
The subject of assay [17] is SK-OV-3.
The test system of assay [18] is K562.
In assay [19] the test system is RPMI-8226.
For assay [20], the system named is SR.

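Each compound was tested at five concentrations against cells in 96-well plates for 48 hours. GI50 = concentration required for 50% inhibition of growth.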 Active and inactive are the calls of the source. Cut-off read from the data, not from the text of the source: active = GI50 up to about 1.1 µM and inactive = higher.

`CC(=O)n1c(COS(C)(=O)=O)nc2ccccc21`: the GI50 in assay [1] is > 100 µM (inactive); in assay [2] it was 66.1 µM (inactive); in assay [3] it was > 100 µM (inactive); in [4] it was > 100 µM (inactive); in assay [5] it was > 100 µM (inactive); in assay [6] it was > 100 µM (inactive). Besides, the GI50 was > 100 µM (inactive) in [7]; > 100 µM (inactive) in assay [8]; > 100 µM (inactive) in [9]; > 100 µM (inactive) in assay [10]; 79.3 µM (inactive) in assay [11]; > 100 µM (inactive) in [12]. Also, the GI50 in [13], in assay [14] and in assay [15] was > 100 µM (inactive) each time.
Take `c1ccc(C[N+]23CN4CN(CN(C4)C2)C3)cc1`: the GI50 in assay [1] was 36.1 µM (inactive); in [2], 52.2 µM (inactive); in assay [3], 20.4 µM (inactive); in assay [16] it was 11.7 µM (inactive); in [4], 37.4 µM (inactive); in assay [5], 20.8 µM (inactive). Also, the GI50 in assay [6] was 18.4 µM (inactive); in [7], 17 µM (inactive); in [8], 36.5 µM (inactive); in assay [17], > 100 µM (inactive); in assay [9], 28.4 µM (inactive); in assay [10] it was 84.5 µM (inactive). In addition, the GI50 was 29.7 µM (inactive) in assay [18]; 22.5 µM (inactive) in assay [19]; 30.1 µM (inactive) in assay [11]; > 100 µM (inactive) in assay [12]; 18 µM (inactive) in assay [13]; 29.2 µM (inactive) in assay [14]. Also, the GI50 in assay [15] is 29.3 µM (inactive).
Consider `CN(C)/C=N/c1cc(=O)n(C)c(=O)n1C`, for which the GI50 in [1], in [2], in assay [3], in [16], in [4] and in assay [5] was > 100 µM (inactive) each time. Also, the GI50 in assay [6], in assay [7], in assay [8], in assay [17], in [9] and in assay [10] was > 100 µM (inactive) each time. For the same molecule, the GI50 in assay [18], in assay [19], in assay [11], in assay [12], in assay [13] and in assay [14] was > 100 µM (inactive) in each case. The GI50 in assay [15] is > 100 µM (inactive).
Regarding `O=[N+]([O-])c1cn[n+]([O-])c2ccccc12`, the GI50 in [1] was 12.7 µM (inactive); in [3], 1.7 µM (inactive); in assay [16] it was 2.74 µM (inactive); in assay [4], 11.4 µM (inactive); in assay [20], 0.403 µM (active); in assay [6] it was 4.19 µM (inactive). For the same molecule, the GI50 in assay [7] is 8.28 µM (inactive); in assay [17], 13.2 µM (inactive); in assay [9], 3.7 µM (inactive); in assay [10] it was 12.9 µM (inactive); in assay [19], 2.03 µM (inactive); in [11], 10.7 µM (inactive). The GI50 was 12.9 µM (inactive) in assay [12], 12 µM (inactive) in [14] and 1.13 µM (inactive) in assay [15].
On to `C=C[C@H]1CC[C@H]2[C@@H]3CC=C4C[C@@H](OC5OCC(O)C(O)C5O)CC[C@]4(C)[C@H]3CC[C@]12C` (stereo partly drawn), for which the GI50 in assay [1] is 1.97 µM (inactive); in assay [2], 10 µM (inactive); in assay [16], 24.8 µM (inactive); in assay [4], 82.8 µM (inactive); in [20], 14.7 µM (inactive); in assay [5], 13.3 µM (inactive). Moreover, the GI50 in assay [6] is 14.9 µM (inactive); in assay [7], 14.3 µM (inactive); in [17], 12.9 µM (inactive); in [9] it was 14.3 µM (inactive); in [18] it was 25.8 µM (inactive); in [19], 81.7 µM (inactive). Further, the GI50 in assay [11] was 36.8 µM (inactive); in [14] it was 12.9 µM (inactive); in [15], 2.83 µM (inactive).
For the molecule `c1ccc(/N=C(/Nc2ccccc2)N2CCCC2)cc1`, the GI50 in [1], in assay [2], in assay [16], in [4], in assay [20] and in assay [5] was > 100 µM (inactive) in each case. Moreover, the GI50 in [6] was > 100 µM (inactive); in assay [7] it was 79.1 µM (inactive); in assay [8], > 100 µM (inactive); in [17] it was > 100 µM (inactive); in [9] it was > 100 µM (inactive); in [10], > 100 µM (inactive). Also, the GI50 in assay [18], in assay [19], in assay [11], in [12], in assay [14] and in assay [15] was > 100 µM (inactive) throughout.
On to `O=C(N/N=C1\CCc2ccccc21)N/N=C1\CCc2ccccc21`, for which the GI50 is > 100 µM (inactive) in assay [2]; > 100 µM (inactive) in [3]; > 100 µM (inactive) in assay [16]; > 100 µM (inactive) in assay [4]; 0.055 µM (active) in assay [20]; > 100 µM (inactive) in [5]. Also, the GI50 in [6], in assay [7], in assay [17], in assay [9], in assay [10] and in assay [18] was > 100 µM (inactive) throughout. Besides, the GI50 in assay [19], in [11], in assay [13], in assay [14] and in assay [15] was > 100 µM (inactive) in each case.
As to `CC(=O)n1[nH]c(=O)n(-c2ccc(Cl)cc2)c1=O`, the GI50 in assay [2], in [3], in assay [16], in assay [4], in [20] and in [5] was > 100 µM (inactive) throughout. Besides, the GI50 in assay [6], in assay [7], in assay [8], in assay [17], in assay [9] and in assay [10] was > 100 µM (inactive) in each case. The GI50 in assay [18], in [19], in assay [11], in assay [12], in [13] and in [14] was > 100 µM (inactive) in each case. Moreover, the GI50 in assay [15] is > 100 µM (inactive).
In the case of `CCC1OC2C(CC=C(C)C)=C3OC(C)(O)C(C)(CC)C(OC(=O)c4ccccc4)C3=C3OC(=O)C=C1C32` (stereo not drawn), the GI50 is 70 µM (inactive) in [1]; 50.7 µM (inactive) in assay [2]; 21.8 µM (inactive) in assay [3]; 59.2 µM (inactive) in assay [16]; 38.4 µM (inactive) in assay [4]; 59.8 µM (inactive) in assay [20]. Moreover, the GI50 was 37.2 µM (inactive) in assay [5]; 67.9 µM (inactive) in [6]; 40.1 µM (inactive) in assay [7]; 56.4 µM (inactive) in assay [17]; 29 µM (inactive) in assay [9]; 52 µM (inactive) in assay [10]. The GI50 in assay [18] was 39 µM (inactive); in assay [19], 24.7 µM (inactive); in [11], 47.6 µM (inactive); in assay [12], 31.6 µM (inactive); in assay [14] it was 41.4 µM (inactive); in [15], 39.6 µM (inactive).
For the molecule `S=C(N/N=C\C=N/NC(=S)N1CCCCCC1)N1CCCCCC1`, the GI50 in [1] is 59 µM (inactive); in assay [2] it was 26 µM (inactive); in assay [3], > 64.9 µM (inactive); in [4] it was > 61.9 µM (inactive); in [5], 8.22 µM (inactive); in assay [6] it was 5.21 µM (inactive). The GI50 in assay [7] was 12.2 µM (inactive); in assay [17] it was 25.5 µM (inactive); in [9], 1.44 µM (inactive); in assay [10], 57.9 µM (inactive); in assay [18] it was 9.14 µM (inactive); in assay [19], > 100 µM (inactive). The GI50 in [11] is 14.3 µM (inactive); in assay [12], > 57.3 µM (inactive); in assay [13], 20.6 µM (inactive); in assay [14], 6.85 µM (inactive); in [15] it was 8.59 µM (inactive).
As to `CCOc1ccc(/N=N/C2C(=O)N(C(=O)CC(=O)Nc3ccc(C)cc3)N=C2C)cc1` (stereo not drawn), the GI50 in assay [1] was 16.7 µM (inactive); in [2], 15.9 µM (inactive); in [3], 19 µM (inactive); in [16], 43.6 µM (inactive); in [4], > 100 µM (inactive); in assay [20], 14 µM (inactive). Further, the GI50 in [5] was 29.4 µM (inactive); in assay [6] it was 15.1 µM (inactive); in [7], > 100 µM (inactive); in assay [8], 25.3 µM (inactive); in [9], 37.8 µM (inactive); in assay [10] it was 24.8 µM (inactive). Besides, the GI50 is 40.6 µM (inactive) in assay [11], 6.68 µM (inactive) in assay [12], 34.7 µM (inactive) in assay [14] and 50.8 µM (inactive) in assay [15].

The values are drawn from ChEMBL document CHEMBL1201862, “PubChem BioAssay data set” (2004).
